Assay results from patent US10350188B2, “Use of Neu1 sialidase inhibitors in the treatment of cancer” (priority 2011, dated 2019).

Columns and labels:
MiaPaCa-2 cells = experiment: Cell viability of MiaPaCa-2 pancreatic cancer cells in culture (MTT or WST-1, 72 hrs); type: cell-based, human; settings: MiaPaCa-2; for Chemo-drug LD50: MTT, 72 hrs
PANC-1 cells = experiment: Cell viability of PANC-1 pancreatic cancer cells in culture (MTT or WST-1, 72 hrs); type: cell-based, human; settings: PANC-1; for Chemo-drug LD50: MTT, 72 hrs
BxPC-3 cells = experiment: Cell viability of BxPC-3 pancreatic cancer cells in culture (MTT or WST-1, 72 hrs); type: cell-based, human; settings: BxPC-3; for Chemo-drug LD50: MTT, 72 hrs
Capan-1 cells = experiment: Cell viability of Capan-1 pancreatic metastatic cancer cells in culture (MTT or WST-1, 72 hrs); type: cell-based, human; settings: Capan-1; for Chemo-drug LD50: WST-1, 72 hrs
Protocol: CAPAN-1 cells (ATCC® Number: HTB-79™) are human pancreatic cancer cell line with epithelial morphology expressing the 17 beta-estradiol (E2)-binding estrogen receptor and derived from metastatic liver with adenocarcinoma.
(§1) All cells were grown at 37° C. in 5% CO2 in culture media containing Dulbecco's Modified Eagle Medium (DMEM) (Gibco, Rockville, Md.) supplemented with 10% fetal calf serum (FCS) (HyClone, Logan, Utah, USA).
(§2) MTT is a colorimetric assay for measuring the activity of enzymes that reduce MTT or closely related dyes (XTT, MTS, WSTs) to formazan dye, giving a purple color. A main application allows the assessment of the viability (cell counting) and the proliferation of cells (cell culture assays). It can also be used to determine cytotoxicity of potential medicinal agents and toxic materials, since those agents would stimulate or inhibit cell viability and growth. MTT (3-(4,5-Dimethylthiazol-2-yl)-2,5-diphenyltetrazolium bromide, a yellow tetrazole), is reduced to purple formazan in living cells. A solubilization solution (usually either dimethyl sulfoxide, an acidified ethanol solution, or a solution of the detergent sodium dodecyl sulphate in diluted hydrochloric acid) is added to dissolve the insoluble purple formazan product into a coloured solution. The absorbance of this coloured solution can be quantified by measuring at a certain wavelength (usually between 500 and 600 nm) by a spectrophotometer. The absorption maximum is dependent on the solvent employed.
(§3) WST-1 (Roche Applied Sciences, Montreal) is a ready-to-use substrate which measures the metabolic activity of viable cells. The WST-1 assay is nonradioactive and can be performed entirely in a microplate. It is suitable for measuring cell proliferation, cell viability or cytotoxicity. The assay is based on the reduction of WST-1 by viable cells. The reaction produces a soluble formazan salt. The procedure involves: Culturing the cells in a 96-well microplate, then incubating them with WST-1 for approx. 0.5-4 h. During this incubation period, viable cells convert WST-1 to a water-soluble formazan dye. Quantitating the formazan dye in the microplate is done with an ELISA plate reader. The absorbance directly correlates with the cell number.

MDA MB-231 cells = experiment: Cell viability of MDA MB-231 breast cancer cells in culture (MTT or WST-1, 72 hrs); type: cell-based, human; settings: MDA MB-231; for Chemo-drug LD50: WST-1, 72 hrs
Protocol: (§4) MDA MB-231cells (ATCC® Number: HTB-26™) are human mammary gland breast adenocarcinoma derived from metastatic pleural effusion with epithelial morphology. MCF-7 (ATCC® Number: HTB-22™) are human mammary gland breast adenocarcinoma derived from metastatic pleural effusion with epithelial morphology.
as §1, §2, §3

MCF-7 cells = experiment: Cell viability of MCF-7 breast cancer cells in culture (MTT or WST-1, 72 hrs); type: cell-based, human; settings: MCF-7; for Chemo-drug LD50: WST-1, 72 hrs
Protocol: as §4, §1, §2, §3

A 2780 cells = experiment: Cell viability of A 2780 ovarian cancer cells in culture (MTT or WST-1, 72 hrs); type: cell-based, human; settings: A 2780; for Chemo-drug LD50: WST-1, 72 hrs
Protocol: (§5) A-2780 cells are human ovarian cancer cell line which was established from tumor tissue from an untreated patient with adenocarcinoma. Cells grow as a monolayer and in suspension in spinner cultures.
as §1, §2, §3

A 2780cis cells = experiment: Cell viability of A 2780cis ovarian cancer cells in culture (MTT or WST-1, 72 hrs); type: cell-based, human; settings: A 2780cis; for Chemo-drug LD50: WST-1, 72 hrs
Protocol: as §5, §1, §2, §3

[1] = tested on: PANC-1 human pancreatic cancer cells implanted in RAG1/Cγ double mutant NOD xenograft mice; experiment: PANC-1 pancreatic cancer xenograft in RAG1/Cγ double mutant NOD mice; settings: for Liver metastases % Inhibition: vs untreated day 79
Description: An immunodeficient mouse model with a double mutation in the combining recombinase activating gene-1 or -2 (RAG1 or RAG2) and common cytokine receptor γ chain (cγ) were used as xenograft mice. […] Mice deficient in both RAG2 and cγ (RAG2−/−/cγ−/−) were generated by inter-crossing and were maintained in SPF isolators in the Animal Care Facility, Queen's University, Kingston, Ontario K7L3N6, Canada. A colony was established in the animal facility. Mice deficient in both RAG1 and cγ (RAG1^−/−×cγ^−/−) on a non-obese diabetic (NOD) genetic background were obtained from the Jackson Laboratory (Bar Harbor, Me.) and a colony was established in the animal facility. All mice were kept under sterile conditions in micro-isolators or air-filtered cages, and were provided with autoclaved food and water. […] They were used between 6 and 8 weeks of age.
Puromycin-resistance eGFP transduced MiaPaCa-2 or PANC-1 cell clones were grown in 75 cm^2 cell culture flask at 80% confluence. The cells were resuspended into solution using TrypLE Express (Gibco) and washed with sterile saline. The cell suspension was centrifuged for 3 min at 900 rpm, and the cell pellet resuspended in sterile saline at a concentration of 5-10×10^6 cells/mL for 1-2×10^6 cells implantation into the right back flank of the mouse. Tumour measurements were taken twice a week. Tumour volumes were determined by (width square/2)×length.
The RAG1/Cγ double mutant xenograft mouse model was implanted with 2×10^6 PANC-1 cells in 0.2 mL in the right back flank.

Neu1 sialidase [2] = molecular target: T1, Neu1 sialidase (Mus musculus, UniProt O35657); settings: live BMA macrophage cells; clopidogrel bisulfate 280 and 500 μM pre-treatment; LPS 5 μg/mL; oseltamivir phosphate 400 μM; cited from earlier work
carboxylesterase = carboxylesterase (Homo sapiens, UniProt P23141); settings: cited from earlier work
[3] = molecular target: T2, sialidase activity associated with TLR ligand treated live BMC-2 macrophage cells (Mus musculus, UniProt O35657); settings: 1-2 mM, compared to LPS positive control; cited from earlier work
T2 construct: endogenous in cells; host or cells: BMC-2 macrophage cells

Neu1 sialidase [4] = molecular target: T1, Neu1 sialidase; experiment: LPS-induced Neu1 sialidase activity in live BMA macrophage cells (4-MUNANA); type: cell-based; set-up: endogenous in cells; host or cells: BMA macrophage cells
Protocol: TLR-expressing BMA macrophage cells were grown on 12 mm circular glass slides in culture media containing DMEM supplemented with 10% fetal calf serum. […] Fluorescent images were taken after 2-3 minutes using epi-fluorescent microscopy (Zeiss Imager M2, 40× objective).
This recently developed assay was used to detect sialidase activity on the surface of viable cells. […] The inhibitory potency of a series of amide-linked C9 modified DANA (2-deoxy-2,3-dehydro-D-N-acetylneuraminic add) analogues on lipopolysaccharide (LPS)-induced Neu1 sialidase activity was assessed in live BMA macrophage cells.

[5] = co-treatment oseltamivir phosphate 730 μM
[6] = co-treatment oseltamivir phosphate 1460 μM
[7] = chemo-drug alone, abraxane 0.5 mg/kg day 78, gemcitabine 30 mg/kg day […]
[8] = day 84, Gemcitabine 30 mg/kg alone
[9] = day 93, Gemcitabine 30 mg/kg alone
[10] = day 112, Gemcitabine 30 mg/kg alone
[11] = oseltamivir phosphate 2 mg/kg, alone day 90, with abraxane 0.5 day 78, with gemcitabine 30 day 110
[12] = oseltamivir phosphate 5 mg/kg, alone day 90, with abraxane 0.5 day 90, with gemcitabine 30 day 109

Chain of carboxylesterase (P23141 18-567): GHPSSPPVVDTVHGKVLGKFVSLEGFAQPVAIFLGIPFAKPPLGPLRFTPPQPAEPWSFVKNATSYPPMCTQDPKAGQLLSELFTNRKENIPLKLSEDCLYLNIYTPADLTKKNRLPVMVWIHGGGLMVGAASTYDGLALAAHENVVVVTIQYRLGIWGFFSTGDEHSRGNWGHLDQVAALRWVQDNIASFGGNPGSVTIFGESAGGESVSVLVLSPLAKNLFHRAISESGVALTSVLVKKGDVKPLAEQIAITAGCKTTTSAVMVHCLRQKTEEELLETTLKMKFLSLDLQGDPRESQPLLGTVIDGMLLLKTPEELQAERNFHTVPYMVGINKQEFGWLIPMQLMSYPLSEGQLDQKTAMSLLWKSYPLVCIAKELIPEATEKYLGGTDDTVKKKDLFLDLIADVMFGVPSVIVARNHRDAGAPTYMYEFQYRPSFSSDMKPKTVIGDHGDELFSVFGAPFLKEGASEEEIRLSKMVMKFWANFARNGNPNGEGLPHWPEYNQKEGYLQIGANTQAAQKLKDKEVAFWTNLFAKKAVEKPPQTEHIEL

## Nc1ccn([C@@H]2O[C@H](CO)[C@@H](O)C2(F)F)c(=O)n1 [gemcitabine, Gemcitabine]
MiaPaCa-2 cells; [5]
  Chemo-drug LD50: 0.78 µM
MiaPaCa-2 cells; [6]
  Chemo-drug LD50: 0.078 µM
MiaPaCa-2 cells; oseltamivir phosphate 0 μM
  Chemo-drug LD50: 0.78 µM
MiaPaCa-2 cells; oseltamivir phosphate 730 μM
  Chemo-drug sensitivity with oseltamivir phosphate (fold increase): 1 fold increase
MiaPaCa-2 cells; oseltamivir phosphate 1460 μM
  Chemo-drug sensitivity with oseltamivir phosphate (fold increase): 10 fold increase
PANC-1 cells; [5]
  Chemo-drug LD50: 1.6 µM
PANC-1 cells; [6]
  Chemo-drug LD50: 1.5 µM
PANC-1 cells; oseltamivir phosphate 0 μM
  Chemo-drug LD50: >26 µM
PANC-1 cells; oseltamivir phosphate 730 μM
  Chemo-drug sensitivity with oseltamivir phosphate (fold increase): 16 fold increase
PANC-1 cells; oseltamivir phosphate 1460 μM
  Chemo-drug sensitivity with oseltamivir phosphate (fold increase): 17 fold increase
BxPC-3 cells; [5]
  Chemo-drug LD50: 0.78 µM
BxPC-3 cells; [6]
  Chemo-drug LD50: 1 µM
BxPC-3 cells; oseltamivir phosphate 0 μM
  Chemo-drug LD50: 0.78 µM
BxPC-3 cells; oseltamivir phosphate 730 μM
  Chemo-drug sensitivity with oseltamivir phosphate (fold increase): 1 fold increase
BxPC-3 cells; oseltamivir phosphate 1460 μM
  Chemo-drug sensitivity with oseltamivir phosphate (fold increase): 0.78 fold increase
Capan-1 cells; [5]
  Chemo-drug LD50: 30 µM
Capan-1 cells; oseltamivir phosphate 0 μM
  Chemo-drug LD50: 60 µM
Capan-1 cells; oseltamivir phosphate 730 μM
  Chemo-drug sensitivity with oseltamivir phosphate (fold increase): 2 fold increase
MDA MB-231 cells; [5]
  Chemo-drug LD50: 40 µM
MDA MB-231 cells; oseltamivir phosphate 0 μM
  Chemo-drug LD50: 70 µM
MDA MB-231 cells; oseltamivir phosphate 730 μM
  Chemo-drug sensitivity with oseltamivir phosphate (fold increase): 2 fold increase
MCF-7 cells; [5]
  Chemo-drug LD50: 40 µM
MCF-7 cells; oseltamivir phosphate 0 μM
  Chemo-drug LD50: 40 µM
MCF-7 cells; oseltamivir phosphate 730 μM
  Chemo-drug sensitivity with oseltamivir phosphate (fold increase): 1 fold increase
A 2780 cells; [5]
  Chemo-drug LD50: 40 µM
A 2780 cells; oseltamivir phosphate 0 μM
  Chemo-drug LD50: 60 µM
A 2780 cells; oseltamivir phosphate 730 μM
  Chemo-drug sensitivity with oseltamivir phosphate (fold increase): 1.5 fold increase
A 2780cis cells; [5]
  Chemo-drug LD50: 40 µM
A 2780cis cells; oseltamivir phosphate 0 μM
  Chemo-drug LD50: 60 µM
A 2780cis cells; oseltamivir phosphate 730 μM
  Chemo-drug sensitivity with oseltamivir phosphate (fold increase): 1.5 fold increase
[1]; [7]
  Liver metastases (ave number of nodules): 12
  Metastases (size, mm): 0.3-1.5 mm
[1]; day 79, chemotherapeutic alone (Abraxane 0.5 mg/kg or Gemcitabine 30 mg/kg i.p. once weekly)
  Tumour volume: 200 ± 47 (5) mm^3
[1]; day 79, chemotherapeutic alone (Abraxane 0.5 or Gemcitabine 30 mg/kg)
  % Inhibition To untreated: 86%
[1]; day 79, chemotherapeutic alone (Abraxane 0.5 or Gemcitabine 30 mg/kg), listed as Gemcitabine
  % Inhibition To untreated: 86% (p < 0.0001)
[1]; [8]
  % Inhibition To untreated: 89%
  Tumour volume: 159 ± 52 (5) mm^3
[1]; day 84, Gemcitabine 30 mg/kg alone, listed as Gemcitabine
  % Inhibition To untreated: 89% (p < 0.0001)
[1]; [9]
  % Inhibition To untreated: 69%
  Tumour volume: 437 ± 140 (3) mm^3
[1]; day 93, Gemcitabine 30 mg/kg alone, listed as Gemcitabine
  % Inhibition To untreated: 69% (p < 0.0001)
[1]; [10]
  % Inhibition To untreated: 63%
  Tumour volume: 507 ± 357(2) mm^3
[1]; day 112, Gemcitabine 30 mg/kg alone, listed as Gemcitabine
  % Inhibition To untreated: 63%
[1]; oseltamivir phosphate 2 mg/kg, alone day 90, with abraxane 0.5 mg/kg day 78, with gemcitabine 30 mg/kg day 110
  Liver metastases (ave number of nodules): 10
[1]; [11]
  Metastases (size, mm): 0.5-1.2 mm
  Liver metastases % Inhibition: 76%
[1]; oseltamivir phosphate 5 mg/kg, alone day 90, with abraxane 0.5 mg/kg day 90, with gemcitabine 30 mg/kg day 109
  Liver metastases (ave number of nodules): 8
[1]; [12]
  Metastases (size, mm): 0.2-1.5 mm
  Liver metastases % Inhibition: 81%

## COC(=O)[C@H](c1ccccc1Cl)N1CCc2sccc2C1 [clopidogrel]
Neu1 sialidase [2]
  Effect on oseltamivir phosphate's capacity to inhibit LPS induced sialidase activity: no effect
carboxylesterase
  Inhibition of hydrolysis of oseltamivir phosphate by carboxylesterase: ≤ 90%

## CC(=O)N[C@H]1[C@H]([C@H](O)[C@H](O)CO)OC(C(=O)O)=C[C@@H]1O [DANA, 2-deoxy-2,3-dehydro-N-acetylneuraminic acid]
[3]
  Inhibition of LPS induced sialidase activity (in words): limited effect
Neu1 sialidase [4]
  Inhibition of Neu1 sialidase (in words): moderate inhibitor of Neu1 sialidase

## CCC(CC)[C@H](NC(C)=O)[C@@H]1C[C@@H](C(=O)O)C[C@H]1N=C(N)N [BCX-1827]
[3]
  Inhibition of LPS induced sialidase activity (in words): limited effect
